≈ marks a conversion by molar mass, not a printed value.
Assays:
Type in all cases: functional
Enterococcus faecalis = experiment: Antibacterial activity against Enterococcus faecalis assessed as inhibition of bacterial growth measured after 24 hrs by two-fold serial dilution method
Escherichia coli [1] = experiment: Antibacterial activity against Escherichia coli assessed as drug resistance by measuring fold change in MIC treated for 16 serial passages and measured every 24 hrs
Acinetobacter baumannii = experiment: Antibacterial activity against Acinetobacter baumanii assessed as inhibition of bacterial growth measured after 24 hrs by two-fold serial dilution method
Escherichia coli [2] = experiment: Antibacterial activity against Escherichia coli ATCC 25922 assessed as inhibition of bacterial growth measured after 24 hrs by two-fold serial dilution method
Pseudomonas aeruginosa [3] = experiment: Antibacterial activity against Pseudomonas aeruginosa ATCC 27853 assessed as inhibition of bacterial growth measured after 24 hrs by two-fold serial dilution method
Staphylococcus aureus [4] = experiment: Antibacterial activity against methicillin-resistant Staphylococcus aureus assessed as inhibition of bacterial growth measured after 24 hrs by two-fold serial dilution method
Klebsiella pneumoniae = experiment: Antibacterial activity against Klebsiella pneumoniae assessed as inhibition of bacterial growth measured after 24 hrs by two-fold serial dilution method
Staphylococcus aureus [5] = experiment: Antibacterial activity against Staphylococcus aureus ATCC 25923 assessed as inhibition of bacterial growth measured after 24 hrs by two-fold serial dilution method
Escherichia coli [6] = experiment: Antibacterial activity against Escherichia coli assessed as inhibition of bacterial growth measured after 24 hrs by two-fold serial dilution method
Staphylococcus aureus [7] = experiment: Antibacterial activity against Staphylococcus aureus ATCC 29213 assessed as inhibition of bacterial growth measured after 24 hrs by two-fold serial dilution method
Pseudomonas aeruginosa [8] = experiment: Antibacterial activity against Pseudomonas aeruginosa assessed as inhibition of bacterial growth measured after 24 hrs by two-fold serial dilution method
Staphylococcus aureus [9] = experiment: Antibacterial activity against Staphylococcus aureus assessed as inhibition of bacterial growth measured after 24 hrs by two-fold serial dilution method
Pseudomonas aeruginosa [10] = experiment: Antibacterial activity against Pseudomonas aeruginosa assessed as drug resistance by measuring fold change in MIC treated for 16 serial passages and measured every 24 hrs

With CCn1cc(C(=O)O)c(=O)c2cc(F)c(N3CCNCC3)cc21 [NORFLOXACIN] as the compound, how does the MIC (Enterococcus faecalis) read?
Its MIC is 4 µg/mL (≈ 12.5 µM).

What about the “fold change (FC)” value (Escherichia coli [1]) of the same compound?
The value was 32.

What about the MIC (Acinetobacter baumannii) of the same compound?
Its MIC is 2 µg/mL (≈ 6.26 µM).

What about the MIC (Escherichia coli [2]) of the same compound?
Its MIC is 2 µg/mL (≈ 6.26 µM).

What about the MIC (Pseudomonas aeruginosa [3]) of the same compound?
Its MIC is 0.5 µg/mL (≈ 1.57 µM).

And the MIC (Staphylococcus aureus [4])?
Its MIC is 8 µg/mL (≈ 25.1 µM).

What about the MIC (Klebsiella pneumoniae) of the same compound?
Its MIC is 2 µg/mL (≈ 6.26 µM).

What about the MIC (Staphylococcus aureus [5]) of the same compound?
The MIC was 2 µg/mL (≈ 6.26 µM).

What about the MIC (Escherichia coli [6]) of the same compound?
The MIC was 4 µg/mL (≈ 12.5 µM).

And the MIC (Staphylococcus aureus [7])?
The MIC was 1 µg/mL (≈ 3.13 µM).

And the MIC (Pseudomonas aeruginosa [8])?
The MIC was 4 µg/mL (≈ 12.5 µM).

What about the MIC (Staphylococcus aureus [9]) of the same compound?
Its MIC is 4 µg/mL (≈ 12.5 µM).

And the “fold change (FC)” value (Pseudomonas aeruginosa [10])?
The value was 32.

From ChEMBL document CHEMBL5036317, “Identification of Unique Quinazolone Thiazoles as Novel Structural Scaffolds for Potential Gram-Negative Bacterial Conquerors” (J Med Chem, 2021)
